Source: PubChem BioAssay AID330 (DTP/NCI, 2004)
Values joined by “and” are separate entries in the source; they are usually repeats but may differ in a detail not shown here. Equal values may be shown once. Toxic doses and inconclusive results are not listed. Rule for the calls: active = survival T/C of 150% or more; inactive = T/C below 125% in these data.

Test system: P388 leukemia ip, CD2F1 mice, survival T/C
Test: NCI In Vivo Anticancer Drug Screen. Data for tumor model P388 Leukemia (intraperitoneal) in CD2F1 (CDF1) mice
Conditions: endpoint: median survival time, higher = longer survival
How it was run: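 Mice carrying the transplanted tumor received test compound or vehicle. Survival was recorded in each group, and the value is the treated-group measurement divided by that of the vehicle-treated control group.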

[1] = dose: 6.25 mg/kg/injection, schedule: Q01DX009 (ip), vehicle: saline
[2] = dose: 60.0 mg/kg/injection, schedule: Q01DX005 (ip), vehicle: saline with Tween-80
[3] = dose: 60.0 mg/kg/injection, schedule: Q01DX005 (ip), vehicle: saline
[4] = dose: 120.0 mg/kg/injection, schedule: Q01DX005 (ip), vehicle: saline with Tween-80
[5] = dose: 120.0 mg/kg/injection, schedule: Q01DX005 (ip), vehicle: saline
[6] = dose: 240.0 mg/kg/injection, schedule: Q01DX005 (ip), vehicle: saline with Tween-80
[7] = dose: 50.0 mg/kg/injection, schedule: Q01DX009 (ip), vehicle: saline
[8] = dose: 50.0 mg/kg/injection, schedule: Q01DX009 (ip), vehicle: saline with Tween-80
[9] = dose: 100.0 mg/kg/injection, schedule: Q01DX009 (ip), vehicle: saline with Tween-80
[10] = dose: 200.0 mg/kg/injection, schedule: Q01DX009 (ip), vehicle: saline with Tween-80

Measured: T/C

CNC(=O)ON(C(C)=O)C(=O)NC
inactive: dose: 3.13 mg/kg/injection, schedule: Q03HX015 (ip), vehicle: water 101 % of control and 118 % of control | dose: 6.25 mg/kg/injection, schedule: Q01DX001 (iv), vehicle: saline 95 % of control | dose: 6.25 mg/kg/injection, schedule: Q01DX005 (iv), vehicle: saline 100 % of control | [1] 118 % of control | dose: 6.25 mg/kg/injection, schedule: Q03HX015 (ip), vehicle: water 121 % of control and 98 % of control | dose: 10.0 mg/kg/injection, schedule: Q01DX009 (ip), vehicle: saline 114 % of control and 119 % of control and 120 % of control | dose: 12.5 mg/kg/injection, schedule: Q01DX001 (iv), vehicle: saline 98 % of control | dose: 12.5 mg/kg/injection, schedule: Q01DX005 (ip), vehicle: saline 116 % of control | dose: 12.5 mg/kg/injection, schedule: Q01DX005 (iv), vehicle: saline 102 % of control | dose: 12.5 mg/kg/injection, schedule: Q01DX005 (oral), vehicle: saline 101 % of control | dose: 12.5 mg/kg/injection, schedule: Q01DX009 (ip), vehicle: water 103 % of control and 120 % of control | dose: 12.5 mg/kg/injection, schedule: Q01DX009 (oral), vehicle: saline 103 % of control | dose: 12.5 mg/kg/injection, schedule: Q03HX015 (ip), vehicle: saline 115 % of control | dose: 12.5 mg/kg/injection, schedule: Q03HX015 (ip), vehicle: water 99 % of control and 116 % of control | dose: 20.0 mg/kg/injection, schedule: Q01DX009 (ip), vehicle: saline 121 % of control | dose: 25.0 mg/kg/injection, schedule: Q01DX001 (ip), vehicle: saline 106 % of control | dose: 25.0 mg/kg/injection, schedule: Q01DX001 (iv), vehicle: saline 100 % of control | dose: 25.0 mg/kg/injection, schedule: Q01DX001 (oral), vehicle: saline 98 % of control | dose: 25.0 mg/kg/injection, schedule: Q01DX005 (ip), vehicle: saline 116 % of control | dose: 25.0 mg/kg/injection, schedule: Q01DX005 (iv), vehicle: saline 104 % of control | dose: 25.0 mg/kg/injection, schedule: Q01DX005 (oral), vehicle: saline 104 % of control | dose: 25.0 mg/kg/injection, schedule: Q01DX009 (ip), vehicle: water 106 % of control | dose: 25.0 mg/kg/injection, schedule: Q01DX009 (oral), vehicle: saline 120 % of control | dose: 25.0 mg/kg/injection, schedule: Q03HX015 (ip), vehicle: water 107 % of control | dose: 40.0 mg/kg/injection, schedule: Q01DX009 (ip), vehicle: saline 124 % of control | dose: 50.0 mg/kg/injection, schedule: Q01DX001 (ip), vehicle: saline 111 % of control | dose: 50.0 mg/kg/injection, schedule: Q01DX001 (iv), vehicle: saline 101 % of control and 102 % of control | dose: 50.0 mg/kg/injection, schedule: Q01DX001 (oral), vehicle: saline 97 % of control | dose: 50.0 mg/kg/injection, schedule: Q01DX005 (ip), vehicle: saline 114 % of control | dose: 50.0 mg/kg/injection, schedule: Q01DX005 (iv), vehicle: saline 106 % of control and 108 % of control | dose: 50.0 mg/kg/injection, schedule: Q01DX005 (oral), vehicle: saline 110 % of control | dose: 50.0 mg/kg/injection, schedule: Q01DX009 (ip), vehicle: water 107 % of control | dose: 50.0 mg/kg/injection, schedule: Q01DX009 (oral), vehicle: saline 115 % of control | dose: 50.0 mg/kg/injection, schedule: Q03HX015 (ip), vehicle: water 112 % of control | dose: 80.0 mg/kg/injection, schedule: Q01DX009 (ip), vehicle: saline 121 % of control | dose: 100.0 mg/kg/injection, schedule: Q01DX001 (ip), vehicle: saline 105 % of control | dose: 100.0 mg/kg/injection, schedule: Q01DX001 (iv), vehicle: saline 99 % of control and 101 % of control | dose: 100.0 mg/kg/injection, schedule: Q01DX001 (oral), vehicle: saline 103 % of control | dose: 100.0 mg/kg/injection, schedule: Q01DX005 (iv), vehicle: saline 114 % of control and 115 % of control | dose: 100.0 mg/kg/injection, schedule: Q01DX005 (oral), vehicle: saline 120 % of control | dose: 100.0 mg/kg/injection, schedule: Q01DX009 (ip), vehicle: water 121 % of control | dose: 200.0 mg/kg/injection, schedule: Q01DX001 (iv), vehicle: saline 107 % of control | dose: 200.0 mg/kg/injection, schedule: Q01DX001 (oral), vehicle: saline 103 % of control | dose: 200.0 mg/kg/injection, schedule: Q01DX005 (oral), vehicle: saline 116 % of control | dose: 200.0 mg/kg/injection, schedule: Q01DX009 (ip), vehicle: water 123 % of control | dose: 400.0 mg/kg/injection, schedule: Q01DX001 (oral), vehicle: saline 116 % of control

O=C(O)C(=O)O.[NH-]CC[NH-].[Pt+2]
inactive: dose: 3.12 mg/kg/injection, schedule: Q04DX002 (ip), vehicle: saline with Tween-80 117 % of control

C[Si](C)(CNCCN)c1ccccc1
inactive: [2] 101 % of control | [3] 91 % of control | [4] 105 % of control | [5] 93 % of control | [6] 101 % of control

[Co+2].[O-]c1cc2ccccc2cc1/C=N/c1ccccn1.[O-]c1cc2ccccc2cc1/C=N/c1ccccn1.[OH3+].[OH3+]
inactive: dose: 12.5 mg/kg/injection, schedule: Q04DX002 (ip), vehicle: saline with Tween-80 93 % of control | dose: 25.0 mg/kg/injection, schedule: Q04DX002 (ip), vehicle: saline with Tween-80 91 % of control | dose: 50.0 mg/kg/injection, schedule: Q04DX002 (ip), vehicle: saline with Tween-80 88 % of control

O=C1NC(=O)C(C23CCN(CC2)CC3)N1 (configuration not stated)
inactive: dose: 100.0 mg/kg/injection, schedule: Q04DX003 (ip), vehicle: saline 101 % of control | dose: 200.0 mg/kg/injection, schedule: Q04DX003 (ip), vehicle: saline 100 % of control | dose: 400.0 mg/kg/injection, schedule: Q04DX003 (ip), vehicle: saline 107 % of control

O=C(O)CN(CCN(CC(=O)O)CC(=O)O)CC(=O)O.[Cd+2]
inactive: dose: 1.56 mg/kg/injection, schedule: Q01DX009 (ip), vehicle: saline 97 % of control | dose: 3.12 mg/kg/injection, schedule: Q01DX009 (ip), vehicle: saline 91 % of control | [1] 91 % of control and 94 % of control | dose: 12.5 mg/kg/injection, schedule: Q01DX009 (ip), vehicle: saline 92 % of control and 95 % of control | dose: 25.0 mg/kg/injection, schedule: Q01DX009 (ip), vehicle: saline 92 % of control and 97 % of control | [7] 88 % of control

CCCCCCCCCCCCCCCC[As](CCCCCCCCCCCCCCCC)SCC1OC(OC(C)=O)C(OC(C)=O)C(OC(C)=O)C1OC(C)=O (configuration not stated)
inactive: dose: 25.0 mg/kg/injection, schedule: Q01DX009 (ip), vehicle: saline with Tween-80 114 % of control | [8] 109 % of control and 119 % of control | [9] 117 % of control | [10] 119 % of control

CC(=O)C(C)(C)Cc1cc(C(C)(C)CC=O)on1
inactive: [2] 107 % of control | [4] 100 % of control | [6] 108 % of control

O=C(O)C(O)C1CCCCC1 (configuration not stated)
inactive: [8] 104 % of control | [9] 92 % of control

c1ccc(CCNC2CCc3ccccc3C2)cc1 (configuration not stated)
inactive: dose: 50.0 mg/kg/injection, schedule: Q01DX005 (ip), vehicle: saline with Tween-80 93 % of control

O=c1cc[nH]cc1
inactive: [7] 100 % of control and 103 % of control | dose: 100.0 mg/kg/injection, schedule: Q01DX009 (ip), vehicle: saline 103 % of control and 109 % of control | dose: 200.0 mg/kg/injection, schedule: Q01DX009 (ip), vehicle: saline 101 % of control and 113 % of control | dose: 400.0 mg/kg/injection, schedule: Q01DX009 (ip), vehicle: saline 111 % of control and 116 % of control | dose: 600.0 mg/kg/injection, schedule: Q01DX009 (ip), vehicle: saline 112 % of control and 113 % of control

N#Cc1c(N)nc2c(c1N)CCO2
inactive: [8] 93 % of control | [9] 96 % of control | [10] 99 % of control

CCC1COCC1Cc1cncn1C (configuration not stated)
inactive: [3] 100 % of control | [5] 103 % of control

N#Cc1ccccc1S(=O)(=O)O
inactive: dose: 100.0 mg/kg/injection, schedule: Q01DX001 (ip), vehicle: saline with Tween-80 96 % of control | dose: 200.0 mg/kg/injection, schedule: Q01DX001 (ip), vehicle: saline with Tween-80 90 % of control | dose: 400.0 mg/kg/injection, schedule: Q01DX001 (ip), vehicle: saline with Tween-80 102 % of control
